How the values were obtained:
purified NLRP6 = assay: ELISA, binding of HRP-conjugated peptide to purified NLRP6; conditions: HRP-conjugated peptide on NLRP6, 1 h, absorbance 450 nm
Description: DNA encoding full-length NLRP6 was codon optimized and chemically synthesized by Genewiz (Soochow, China). The DNA sequence was subcloned into NdeI-XhoI sites of a pDB-His-MBP vector (kindly given by Pro. Chenggui Han, China Agricultural University, Beijing, China). Recombinant NLRP6 protein was expressed and purified following previous reports, with slight modifications. Briefly, the protein was expressed in E. coli (DE3) at 16 °C with 0.5 mM IPTG induction overnight. Then, the protein was purified by Ni affinity and gel filtration chromatography. The p85α WT and p85α mutant sequences were chemically synthesized and subcloned into BamHI-XhoI sites of a pGEX-6P-1 plasmid by GenScript (Nanjing, China). The E. coli (DE3) transformed with the plasmids were grown in LB medium at 37 °C. The culture medium was supplemented with 0.5 mM IPTG followed by incubation at 16 °C for 16–18 h. The proteins were purified by glutathione-affinity chromatography (Smart-Life Sciences, Changzhou, China) followed by gel filtration chromatography (Cytiva, MA, USA) using PBS. The protein extinction coefficient was calculated by ProtParam, and the protein concentration was determined by the ultraviolet spectrophotometry method.
The 96-well plate was coated with bovine serum albumin (BSA) or purified NLRP6. HRP-conjugated PepC or HRP-conjugated Pep9 was incubated with BSA or NLRP6 for 1 h, and the unbound peptide was washed away. The HRP substrate was added, and the absorbance was detected at 450 nm. For the competitive ELISA, the 96-well plate was coated with purified p85α. The binding of NLRP6 to p85α competed with 10 μM PepC or 5 μM, 10 μM, 20 μM Pep9 for 1 h.

U251 cells = assay: Cell proliferation / viability assay, U251 (PTEN deficient); type: cell-based, Human; conditions: Supplementary Figure 8i
Description: (§1) Cells were seeded into 12-well plates at a density of 1 × 10^4 cells per well. Manual cell counting was carried out at the indicated times using trypan blue and a haemocytometer.
(§2) To determine the antitumour effect of the peptide in vitro, the peptide was incubated with cells for 24 h when the cells were grown to approximately 80% confluence. Cell viability was measured at the indicated time points. The cell lysates were collected for immunoprecipitation as described above. To determine the antitumour effect of the peptide in vivo, the peptide was stereotactically injected using identical coordinates of tumour implantation in 3 μl of PBS. Briefly, 3 weeks after intracranial tumour cell implantation, mice with similar tumour sizes and similar weights were selected and randomly arranged into five groups (n = 6): PBS, PepC (0.25 mg/kg TAT-PepC per injection), Pep9 low dose (Pep9 L, 0.05 mg/kg TAT-Pep9 per injection), Pep9 medium dose (Pep9 M, 0.1 mg/kg TAT-Pep9 per injection), and Pep9 high dose (Pep9 H, 0.25 mg/kg TAT-Pep9 per injection). Each mouse received intratumoural injection every 10 days (at Day 21, Day 31, Day 41, and Day 51), and tumour growth was monitored at Day 21, Day 41, and Day 56. The experiment was terminated at Day 80, and all the mice (if they were alive) were sacrificed as previously described.

LN229 cells = assay: Cell proliferation / viability assay, LN229; type: cell-based, Human; conditions: TAT-peptide
Description: as §1, §2

## SAEGYQYRALYD [Pep1, peptide found on the p85α SH3 domain; selected as the control named PepC]
Purified NLRP6; replicate 1
  ELISA value: 0.12
Purified NLRP6; replicate 2
  ELISA value: 0.10
Purified NLRP6; replicate 3
  ELISA value: 0.06
U251 cells; 5 μM, replicate 1
  Relative cell viability: 1.01
U251 cells; 5 μM, replicate 2
  Relative cell viability: 1.04
U251 cells; 5 μM, replicate 3
  Relative cell viability: 0.94
U251 cells; 10 μM, replicate 1
  Relative cell viability: 0.88
U251 cells; 10 μM, replicate 2
  Relative cell viability: 0.87
U251 cells; 10 μM, replicate 3
  Relative cell viability: 0.79
U251 cells; 20 μM, replicate 1
  Relative cell viability: 0.99
U251 cells; 20 μM, replicate 2
  Relative cell viability: 1.04
U251 cells; 20 μM, replicate 3
  Relative cell viability: 0.91
U251 cells; 30 μM, replicate 1
  Relative cell viability: 1.05
U251 cells; 30 μM, replicate 2
  Relative cell viability: 0.89
U251 cells; 30 μM, replicate 3
  Relative cell viability: 0.98
LN229 cells; concentration 5 (unit not given), replicate 1
  Relative cell viability: 0.87
LN229 cells; concentration 5 (unit not given), replicate 2
  Relative cell viability: 0.87
LN229 cells; concentration 5 (unit not given), replicate 3
  Relative cell viability: 0.99
LN229 cells; concentration 10 (unit not given), replicate 1
  Relative cell viability: 1.05
LN229 cells; concentration 10 (unit not given), replicate 2
  Relative cell viability: 0.89
LN229 cells; concentration 10 (unit not given), replicate 3
  Relative cell viability: 0.97
LN229 cells; concentration 20 (unit not given), replicate 1
  Relative cell viability: 0.94
LN229 cells; concentration 20 (unit not given), replicate 2
  Relative cell viability: 0.96
LN229 cells; concentration 20 (unit not given), replicate 3
  Relative cell viability: 1.01
LN229 cells; concentration 30 (unit not given), replicate 1
  Relative cell viability: 0.95
LN229 cells; concentration 30 (unit not given), replicate 2
  Relative cell viability: 0.96
LN229 cells; concentration 30 (unit not given), replicate 3
  Relative cell viability: 1.02
